We go through three compounds from BindingDB's records for patent US20230348424 (Schrödinger, 2023).

For assay [1], the target named is T1, Son of sevenless homolog 1 [564-1049] (Human, UniProt Q07889).
T1 construct: 564-1049
T1 sequence (Q07889 whole entry): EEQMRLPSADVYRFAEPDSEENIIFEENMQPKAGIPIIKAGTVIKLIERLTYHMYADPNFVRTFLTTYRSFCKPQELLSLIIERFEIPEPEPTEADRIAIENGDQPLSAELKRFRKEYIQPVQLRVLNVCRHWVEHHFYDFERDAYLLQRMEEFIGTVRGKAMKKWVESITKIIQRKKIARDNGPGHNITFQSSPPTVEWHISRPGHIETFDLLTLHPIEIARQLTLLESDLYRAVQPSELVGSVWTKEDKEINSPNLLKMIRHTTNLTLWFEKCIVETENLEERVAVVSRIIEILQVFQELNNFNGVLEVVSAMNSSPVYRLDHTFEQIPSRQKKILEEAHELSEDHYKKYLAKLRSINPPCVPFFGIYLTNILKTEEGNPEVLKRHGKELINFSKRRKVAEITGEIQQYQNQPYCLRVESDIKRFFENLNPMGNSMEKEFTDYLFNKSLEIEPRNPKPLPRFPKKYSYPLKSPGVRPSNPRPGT
Briefly: Surface Plasmon Resonance (SPR) SOS1 Binding AssaySurface Plasmon Resonance (SPR) SOS1 Binding Assay. The procedure: Binding to SOS1 was measured using a SPR assay with purified recombinant human SOS1 substrate (res. 564-1049 with N-terminal Avi tag; purified and biotinylated based on Hillig, et al., Proc Natl Acad Sci USA (2019); 116(7):2551-2560). SPR measurements were performed on a Biacore 8K SPR instrument (GE Healthcare, Sweden). Assays were performed at 25° C. using Series S SA sensor chips pre-coated with streptavidin (GE Healthcare, Cat. BR100531). Biotinylated SOS1 diluted in sample buffer (20 mM Tris HCI, 150 mM NaCl, 1 mM DTT, 0.05% TWEEN 20, 1 mM MgCh, pH 8.0) was captured to one flow cell of the chip to about 3,000 resonance units (RU) using sample buffer supplemented with 5% DMSO as a running buffer. Serial dilutions of the assayed compounds in the running buffer at 100, 50 or 0.5 µM were injected for 60 s at a flow rate of 30 µL/min and association phases were recorded. Dissociation of the samples was monitored for 600 s. Data processing was performed using Biacore Insight Software (Biacore, GE Healthcare). Sensorgrams recorded on a SA flow cell without captured protein were subtracted from sensorgrams recorded on the SOS1 surface. Blank injections of running buffer were used for double referencing and solvent correction was applied to all sample sensorgrams to correct for buffer mismatches. KDS were estimated using a kinetic or steady state, where applicable, fitting model describing a reversible equilibrium with 1:1 binding between SOS1 and the compound.

Assay [2] addresses T2, Son of sevenless homolog 1 [564-1049]/GTPase KRas [G12C] (UniProt Q07889).
T2 construct: 564-1049
Briefly: SOS1 KRas(G12C) FRET Assay. The procedure:
A 2x KRAS working solution was prepared in an assay buffer containing 5 nM GST-KRAS G12C and 2 nM anti-GST-Eu(K) (Cisbio, Cat. 61GSTKLA) and pre-incubated for 15 minutes at 25° C. […] The final DMSO concentration is 0.5%. […] FRET signal was converted to percentage of protein-protein interaction using the following equation:%Inhibition=100%-C-N/P-N*100%C: signal with compound treatmentP: signal for positive control (DMSO)N: signal for negative control (no SOS1 added).

T2 sequence (P01116 whole entry G12C, one chain of several): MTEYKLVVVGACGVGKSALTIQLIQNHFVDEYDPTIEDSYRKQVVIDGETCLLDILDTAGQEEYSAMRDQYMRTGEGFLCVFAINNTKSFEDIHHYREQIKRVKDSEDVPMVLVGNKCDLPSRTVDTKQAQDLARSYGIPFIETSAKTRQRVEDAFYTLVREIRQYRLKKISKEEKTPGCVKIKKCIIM

`Cc1c([C@@H](C)NC(=O)c2cn(C3CCOCC3)c(=O)cc2NC2CCN(C)CC2)cccc1C(F)(F)F` [US20230348424, Example 1] showed a Kd in assay [1] of 6 nM. That is a single-digit nanomolar value.

In assay [1], `C[C@@H](NC(=O)c1cn(C23CC(C2)C3)c(=O)cc1N[C@H]1[C@@H]2CNC[C@@H]21)c1cccc(C(F)F)c1F` [US20230348424, Example 89] had a Kd of 12 nM. Compared with the last compound, the Kd is about 2-fold higher. In assay [1], `C[C@@H](NC(=O)c1cn(C2(C(F)(F)F)CC2)c(=O)cc1N[C@H]1[C@@H]2CN(C)C[C@@H]21)c1cccc(C(F)(F)F)c1F` [US20230348424, Example 120] gave a Kd of 24 nM. Further, half-maximal inhibition in assay [2] (IC50) required 35.7 nM.
